Data: ChEMBL document CHEMBL1201862, “PubChem BioAssay data set” (2004)
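How tested: cells in 96-well plates exposed to compound for 48 hours at five concentrations. GI50 marks 50% less growth.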 Activity calls are given as the source filed them. No stated cut-off is given here; in the data, active = GI50 up to about 1.1 µM and inactive = higher.

Tests used:
Experiment in all cases: growth of human tumour cells (NCI), 48 h
786-0 = tested on: 786-0
A498 = tested on: A498
A549 = tested on: A549
ACHN = tested on: ACHN
BT-549 = tested on: BT-549
CAKI-1 = tested on: CAKI-1
CCRF-CEM = tested on: CCRF-CEM
COLO 205 = tested on: COLO 205
DU-145 = tested on: DU-145
EKVX = tested on: EKVX
HCC 2998 = tested on: HCC 2998
HCT-116 = tested on: HCT-116
HCT-15 = tested on: HCT-15
HL-60 = tested on: HL-60
HOP-62 = tested on: HOP-62
HOP-92 = tested on: HOP-92
HT-29 = tested on: HT-29
Hs-578T = tested on: Hs-578T
IGROV-1 = tested on: IGROV-1
K562 = tested on: K562
KM12 = tested on: KM12
LOX IMVI = tested on: LOX IMVI
M14 = tested on: M14
MCF7 = tested on: MCF7
MDA-MB-231 = tested on: MDA-MB-231
MDA-MB-435 = tested on: MDA-MB-435
MDA-N = tested on: MDA-N
MOLT-4 = tested on: MOLT-4
Malme-3M = tested on: Malme-3M
NCI-H226 = tested on: NCI-H226
NCI-H23 = tested on: NCI-H23
NCI-H460 = tested on: NCI-H460
NCI-H522 = tested on: NCI-H522
NCI/ADR-RES = tested on: NCI/ADR-RES
OVCAR-3 = tested on: OVCAR-3
OVCAR-4 = tested on: OVCAR-4
OVCAR-5 = tested on: OVCAR-5
OVCAR-8 = tested on: OVCAR-8
PC-3 = tested on: PC-3
RPMI-8226 = tested on: RPMI-8226
RXF 393 = tested on: RXF 393
SF-268 = tested on: SF-268
SF-295 = tested on: SF-295
SF-539 = tested on: SF-539
SK-MEL-28 = tested on: SK-MEL-28
SK-MEL-2 = tested on: SK-MEL-2
SK-MEL-5 = tested on: SK-MEL-5
SK-OV-3 = tested on: SK-OV-3
SN12C = tested on: SN12C
SNB-19 = tested on: SNB-19
SNB-75 = tested on: SNB-75
SR = tested on: SR
SW-620 = tested on: SW-620
T47D = tested on: T47D
TK-10 = tested on: TK-10
U-251 = tested on: U-251
UACC-257 = tested on: UACC-257
UACC-62 = tested on: UACC-62
UO-31 = tested on: UO-31

Measured: GI50

Cc1ccc(C(=O)NC2C(=O)NC(C(C)C)C(=O)N3CCCC3C(=O)N(C)CC(=O)N(C)C(C(C)C)C(=O)OC2C)c2c1Oc1c(c(C(=O)NC3C(=O)NC(C(C)C)C(=O)N4CCCC4C(=O)N(C)CC(=O)N(C)C(C(C)C)C(=O)OC3C)c3nc(-c4ccccc4)c(=O)oc3c1C)N2 (stereo unspecified)
37.7 nM: HCT-15
active: 786-0 < 1 nM | A498 < 1 nM | A549 < 1 nM | ACHN 5.15 nM | BT-549 < 1 nM | CAKI-1 9.48 nM | CCRF-CEM 2.55 nM | COLO 205 3.9 nM | DU-145 4.22 nM | EKVX 7.05 nM | HCC 2998 < 1 nM | HCT-116 < 1 nM | HL-60 9.95 nM | HOP-62 < 1 nM | HOP-92 16 nM | HT-29 < 1 nM | Hs-578T 1.34 nM | IGROV-1 < 1 nM | K562 3.12 nM | KM12 < 1 nM | LOX IMVI < 1 nM | M14 23.1 nM | MCF7 < 1 nM | MDA-MB-231 7.62 nM | MDA-MB-435 1.54 nM | MDA-N 3.48 nM | MOLT-4 2.22 nM | Malme-3M 3.61 nM | NCI-H226 1.63 nM | NCI-H23 1.67 nM | NCI-H460 < 1 nM | NCI-H522 2.4 nM | NCI/ADR-RES 189 nM | OVCAR-3 10 nM | OVCAR-4 151 nM | OVCAR-5 2.16 nM | OVCAR-8 < 1 nM | PC-3 2.19 nM | RPMI-8226 1.47 nM | RXF 393 1.61 nM | SF-268 < 1 nM | SF-295 < 1 nM | SF-539 < 1 nM | SK-MEL-28 < 1 nM | SK-MEL-2 1.12 nM | SK-MEL-5 1.77 nM | SK-OV-3 1.59 nM | SN12C < 1 nM | SNB-19 < 1 nM | SNB-75 1.01 nM | SR 10 nM | SW-620 4 nM | T47D 4.53 nM | TK-10 57.8 nM | U-251 < 1 nM | UACC-257 8.71 nM | UACC-62 < 1 nM | UO-31 10.3 nM

O=S(=O)(O)c1ccc2c(/N=N/c3ccccc3)c(O)c(S(=O)(=O)O)cc2c1
inactive: 786-0 > 100000 nM | A498 > 100000 nM | A549 > 100000 nM | ACHN > 100000 nM | BT-549 > 100000 nM | CAKI-1 > 100000 nM | CCRF-CEM > 100000 nM | COLO 205 > 100000 nM | DU-145 > 100000 nM | EKVX 67000 nM | HCC 2998 > 100000 nM | HCT-116 > 100000 nM | HL-60 > 100000 nM | HOP-62 > 100000 nM | HOP-92 > 100000 nM | Hs-578T > 100000 nM | IGROV-1 > 100000 nM | K562 > 100000 nM | KM12 > 100000 nM | M14 > 100000 nM | MCF7 > 100000 nM | MDA-MB-231 > 100000 nM | MDA-MB-435 > 100000 nM | MDA-N > 100000 nM | MOLT-4 > 100000 nM | Malme-3M > 100000 nM | NCI-H226 > 100000 nM | NCI-H23 > 100000 nM | NCI-H460 > 100000 nM | NCI-H522 > 100000 nM | NCI/ADR-RES > 100000 nM | OVCAR-3 > 100000 nM | OVCAR-4 > 100000 nM | OVCAR-5 > 100000 nM | OVCAR-8 > 100000 nM | PC-3 > 100000 nM | RXF 393 > 100000 nM | SF-268 > 100000 nM | SF-295 > 100000 nM | SF-539 > 100000 nM | SK-MEL-28 > 100000 nM | SK-MEL-2 > 100000 nM | SK-MEL-5 > 100000 nM | SK-OV-3 > 100000 nM | SN12C > 100000 nM | SNB-19 > 100000 nM | SNB-75 > 100000 nM | SR > 100000 nM | SW-620 > 100000 nM | T47D > 100000 nM | TK-10 > 100000 nM | U-251 > 100000 nM | UACC-257 > 100000 nM | UACC-62 > 100000 nM | UO-31 > 100000 nM
> 100000 nM: HCT-15
active: RPMI-8226 < 10 nM
